Measurements taken from publication PMC9779571, “Guanidine Derivatives Containing the Chalcone Skeleton Are Potent Antiproliferative Compounds against Human Leukemia Cells” (International Journal of Molecular Sciences, 2022).
Values joined by “and” are separate entries in the source; they are usually repeats but may differ in a detail not shown here. Equal entries are not always repeated.

Assays:
NALM-6 cells = test: MTT cytotoxicity assay, NALM-6; assay type: cell-based, human; conditions: for IC50: Homo sapiens, NALM-6, 72 h, 72 h, MTT, means ± SEM
Text: (§1) U-937, HL-60, MOLT-3, NALM-6, and SK-MEL-1 cells were from DSMZ (German Collection of Microorganisms and Cell Cultures, Braunschweig, Germany). U-937/Bcl-2 cells were kindly provided by Dr. Jacqueline Bréard (INSERM U749, Faculté de Pharmacie Paris-Sud, Châtenay-Malabry, France). The U-937 is a pro-monocytic, human promyelocytic leukemia cell line that was isolated from a histiocytic lymphoma. HL-60 is a human acute myeloid leukemia cell line. MOLT-3 is a human acute lymphoblastic leukemia cell line. NALM-6 is a human B cell precursor leukemia. SK-MEL-1 is a human melanoma cell line growing singly or in clumps (occasional giant, polynucleated cell) in suspension. Cells were cultured in RPMI 1640 medium containing 10% (v/v) heat-inactivated fetal bovine serum, 100 μg/mL streptomycin, and 100 U/mL penicillin, incubated at 37 °C in a humidified atmosphere containing 5% CO2 as described. The doubling times of the cell lines were 24 h in HL-60, 30 h in U-937, U-937/Bcl-2, 40 h in MOLT-3 and NALM-6, and several days in SK-MEL-1 cells. Human peripheral blood mononuclear cells (PBMC) were isolated from heparin-anticoagulated blood of healthy volunteers by centrifugation with Ficoll-Paque Plus (GE Healthcare Bio-Sciences AB, Uppsala, Sweden). PBMC were also stimulated with phytohemagglutinin (2 µg/mL) for 48 h before the experimental treatment. The trypan blue exclusion method was used for counting the cells by a hemocytometer with 95% viability in all the experiments. Compounds were dissolved in dimethyl sulfoxide (DMSO) and kept under dark conditions at 25 °C. […] The cytotoxicity of the synthetic compounds was evaluated by colorimetric 3-(4,5-dimethyl-2-thiazolyl-)-2,5-diphenyl-2H-tetrazolium bromide (MTT) assay as previously described. Briefly, cells (5000 per well) were incubated with increasing concentrations of compounds for 72 h into a 96-well plate. Then, the supernatants were removed and 0.5 mg/mL MTT was added and incubated for 4 h at 37 °C. Sodium dodecyl sulfate (10% w/v) in 0.05 M HCl was added to solubilize the reaction products and the absorbance was measured at 570 nm with a reference wavelength of […] using an ELISA reader (Bio-Rad, Hercules, CA, USA). The IC50 values (concentrations inducing a 50% inhibition of cell viability) were determined graphically for each experiment by a nonlinear regression using the curve fitting routine implemented within the software Prism 5.0 (GraphPad, La Jolla, CA, USA).

HL-60 cells = test: MTT cytotoxicity assay, HL-60; assay type: cell-based; conditions: Homo sapiens, HL-60, 72 h, means ± SEM
Text: as §1

SK-MEL-1 cells = test: MTT cytotoxicity assay, SK-MEL-1; assay type: cell-based, human; conditions: Homo sapiens, SK-MEL-1, 72 h, means ± SEM
Text: as §1

U-937 cells = test: MTT cytotoxicity assay, U-937; assay type: cell-based; conditions: Homo sapiens, U-937, 72 h, means ± SEM
Text: as §1

U-937/Bcl-2 cells = test: MTT cytotoxicity assay, U-937/Bcl-2; assay type: cell-based, human; conditions: Homo sapiens, U-937, 72 h, means ± SEM
Text: as §1

MOLT-3 cells = test: MTT cytotoxicity assay, MOLT-3; assay type: cell-based, human; conditions: Homo sapiens, MOLT-3, 72 h, means ± SEM
Text: as §1

U-937 leukemia cells = test: Cell cycle and sub-G1 analysis by flow cytometry (propidium iodide); assay type: cell-based, human; conditions: 24 h; for fold increase of sub-G1 cells over control / %G1 / %G2-M / %S / %Sub-G1: 10 µM; for fold increase of sub-G1 cells over control: U-937; for %G1 / %G2-M / %S / %Sub-G1: U-937, means ± S.E.; for cell cycle arrest: U-937, 10 µM
Experimental: Cells (2.5 × 10^5) were centrifuged for 10 min at 500× g, washed with cold PBS, fixed with ice-cold 75% ethanol and stored at −20 °C overnight. Samples were then centrifuged at 500× g for 10 min at 4 °C, washed with PBS, resuspended in 200 μL of PBS containing 100 μg/mL RNase and 50 μg/mL propidium iodide and incubated for 1 h in the dark. The DNA content was analyzed by flow cytometry with a BD FACSVerse^TM cytometer (BD Biosciences, San Jose, CA, USA). Apoptosis was also evaluated by flow cytometric analysis of double-staining annexin V-FITC and propidium iodide cells as previously described.

[1] = tested on: six human cancer cell lines; test: MTT cytotoxicity assay, all cell lines assayed (summary statements); assay type: cell-based; conditions: 72 h, MTT
Text: U-937, HL-60, MOLT-3, NALM-6, and SK-MEL-1 cells were from DSMZ (German Collection of Microorganisms and Cell Cultures, Braunschweig, Germany). U-937/Bcl-2 cells were kindly provided by Dr. Jacqueline Bréard (INSERM U749, Faculté de Pharmacie Paris-Sud, Châtenay-Malabry, France). The U-937 is a pro-monocytic, human promyelocytic leukemia cell line that was isolated from a histiocytic lymphoma. HL-60 is a human acute myeloid leukemia cell line. MOLT-3 is a human acute lymphoblastic leukemia cell line. NALM-6 is a human B cell precursor leukemia. SK-MEL-1 is a human melanoma cell line growing singly or in clumps (occasional giant, polynucleated cell) in suspension. Cells were cultured in RPMI 1640 medium containing 10% (v/v) heat-inactivated fetal bovine serum, 100 μg/mL streptomycin, and 100 U/mL penicillin, incubated at 37 °C in a humidified atmosphere containing 5% CO2 as described. […] The cytotoxicity of the synthetic compounds was evaluated by colorimetric 3-(4,5-dimethyl-2-thiazolyl-)-2,5-diphenyl-2H-tetrazolium bromide (MTT) assay as previously described. […] Sodium dodecyl sulfate (10% w/v) in 0.05 M HCl was added to solubilize the reaction products and the absorbance was measured at 570 nm with a reference wavelength of […] using an ELISA reader (Bio-Rad, Hercules, CA, USA). […]

SMILES | IC50 (NALM-6 cells) [µM] | IC50 (HL-60 cells) [µM] | IC50 (SK-MEL-1 cells) [µM] | IC50 (U-937 cells) [µM] | IC50 (U-937/Bcl-2 cells) [µM] | IC50 (MOLT-3 cells) [µM] | fold increase of sub-G1 cells over control (U-937 leukemia cells) | %G1 (U-937 leukemia cells) [%] | %G2-M (U-937 leukemia cells) | %S (U-937 leukemia cells) [%] | %Sub-G1 (U-937 leukemia cells) | cell cycle arrest (U-937 leukemia cells) | cytotoxicity against the cancer cell lines assayed [1] | increase in cytotoxicity on substitution of p-tosyl-sulfonyl group (6b) by phenyl group (NALM-6 cells; NALM-6, IC50 ratio 6b vs 6h)
[N-]=[N+]=Nc1ccc(/C=C/C(=O)c2c(O)cccc2OCc2ccccc2)cc1 [Compound 3] | 11.6 ± 1.6 | > 30 | > 30 | > 30 | > 30 | 7.4 ± 0.4 | – | – | – | – | – | – | – | –
Cc1ccc(S(=O)(=O)NC(=Nc2ccc(/C=C/C(=O)c3c(O)cccc3OCc3ccccc3)cc2)NC(C)C)cc1 [Compound 6a] | 2.9 ± 0.5 | 3.7 ± 1.6 | > 30 | 11.4 ± 6.5 | 2.9 ± 0.2 | 2.9 ± 1.1 | – | – | – | – | – | – | – | –
Cc1ccc(S(=O)(=O)NC(=Nc2ccc(/C=C/C(=O)c3c(O)cccc3OCc3ccccc3)cc2)N(C(C)C)C(C)C)cc1 [Compound 6b] | 27 ± 0.8 | 20.5 ± 9.5 | > 30 | 18.5 ± 9.6 | 11.7 ± 7 | 2 ± 0.7 | – | – | – | – | – | – | – | –
Cc1ccc(S(=O)(=O)NC(=Nc2ccc(/C=C/C(=O)c3c(O)cccc3OCc3ccccc3)cc2)N(C)c2ccccc2)cc1 [Compound 6c] | 9.9 ± 3.1 | 4.2 ± 0.5 | > 30 | 9.5 ± 5.3 | 4.2 ± 1.2 | 2.5 ± 0.2 | ~ 10 fold | 37.4 ± 0.3 | 11.4 ± 0.4% | 27.0 ± 0.7 | 23.5% and 23.5 ± 1.2 % | not caused by a significant cell cycle arrest in any phase | – | –
Cc1ccc(S(=O)(=O)NC(=Nc2ccc(/C=C/C(=O)c3c(O)cccc3OCc3ccccc3)cc2)N2CCCCC2)cc1 [Compound 6d] | 6.6 ± 1.2 | 28.5 ± 14.3 | > 30 | > 30 | 24.6 ± 5.4 | 3.3 ± 0.6 | – | – | – | – | – | – | – | –
Cc1ccc(S(=O)(=O)NC(=Nc2ccc(/C=C/C(=O)c3c(O)cccc3OCc3ccccc3)cc2)N2CCOCC2)cc1 [Compound 6e] | 3.1 ± 0.5 | 3.8 ± 1.1 | 14.3 ± 5.7 | 5.4 ± 2.1 | 2.3 ± 0.9 | 3.2 ± 1.5 | ~ 5 fold | 36.5 ± 2.3 | 27% and 27.3 ± 2.0 % | 23.6 ± 0.5 | 11.9% and 11.9 ± 0.2 % | induced an arrest at the G2-M phase | – | –
CCCCCCCCCCCCCCCCCCNC(=Nc1ccc(/C=C/C(=O)c2c(O)cccc2OCc2ccccc2)cc1)NS(=O)(=O)c1ccc(C)cc1 [Compound 6g] | > 30 | > 30 | > 30 | > 30 | > 30 | > 30 | – | – | – | – | – | – | not cytotoxic | –
CC(C)N(/C(=N/c1ccc(/C=C/C(=O)c2c(O)cccc2OCc2ccccc2)cc1)Nc1ccccc1)C(C)C [Compound 6h] | 5.4 ± 0.2 | 5.2 ± 0.9 | 5.2 ± 1 | 10.6 ± 2.6 | 14 ± 6.6 | 4.3 ± 0.5 | – | 53.7 ± 0.4 | 9.2 ± 0.5 % | 29.5 ± 0.3 | 7.2 ± 1.1 % | not caused by a significant cell cycle arrest in any phase | – | five-fold
O=C(/C=C/c1ccc(N=C(Nc2ccccc2)N2CCOCC2)cc1)c1c(O)cccc1OCc1ccccc1 [Compound 6j] | 4.1 ± 0.5 | 6.2 ± 1.7 | 5.4 ± 0.8 | 8.6 ± 1.1 | 11.7 ± 3.4 | 1.8 ± 0.5 | – | 51.3 ± 1.1 | 11.5 ± 0.1% | 32.0 ± 0.4 | 4.7 ± 0.6% | – | – | –
CN1CCN(C(=Nc2ccc(/C=C/C(=O)c3c(O)cccc3OCc3ccccc3)cc2)Nc2ccccc2)CC1 [Compound 6k] | 24.8 ± 3.3 | 11.4 ± 5.5 | > 30 | 14 ± 1.1 | 14 ± 5.1 | 21.7 ± 6.5 | – | – | – | – | – | – | – | –
COc1cccc2c1C(=O)c1c(O)c3c(c(O)c1C2=O)C[C@@](O)(C(=O)CO)C[C@@H]3O[C@H]1C[C@H](N)[C@H](O)[C@H](C)O1 [Doxorubicin, reference compound] | – | – | 0.3 ± 0.1 | 0.1 | – | – | – | – | – | – | – | – | – | –
COc1cc([C@@H]2c3cc4c(cc3[C@@H](O[C@@H]3O[C@@H]5CO[C@@H](C)O[C@H]5[C@H](O)[C@H]3O)[C@H]3COC(=O)[C@H]23)OCO4)cc(OC)c1O [Etoposide, reference compound] | – | 0.6 ± 0.2 | 9 ± 3 | 1.8 ± 0.2 | – | 0.2 ± 0.1 | – | – | – | – | – | – | – | –
